This note sets out measurements from the supplement of paper PMC10307832.

Assay in all cases: relative viability (nuclei count vs DMSO), 5 days (fraction); higher = more cells survive
Compound in assay [1]: Cc1ccc(C(=O)Nc2cccc(C(F)(F)F)c2)cc1Nc1cncc(C(N)=O)c1 [ALW-II-49-7] + CS(=O)(=O)N1CCN(Cc2cc3nc(-c4cccc5[nH]ncc45)nc(N4CCOCC4)c3s2)CC1 [Pictilisib] (partner 1 µM)
In outline:
(§1)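 Lung cancer cell lines were pin-tool dosed in 1536-well plates on the day after seeding, with either a lone drug or a fixed anchor-drug dose plus five library-drug doses (not always all listed) in √10 steps. Nuclei were counted on 4× images after 5 days. Relative viability is the ratio of treated-well to vehicle-well nuclei counts, with each value a median of duplicate plates.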

Compound in assay [2]: C1CC1C(=O)NC2=NNC3=C2C=CC(=C3)C4=CC(=CC=C4)C(=O)NC5CC5 [XMD13-2] + C[C@@H](Oc1cc(-c2cnn(C3CCNCC3)c2)cnc1N)c1c(Cl)ccc(F)c1Cl [Crizotinib] (partner 1 µM)
In short, it runs like this: as §1

Compound in assay [3]: Cc1nc(Nc2ncc(C(=O)Nc3c(C)cccc3Cl)s2)cc(N2CCN(CCO)CC2)n1 [Dasatinib] + C[C@]1(O)C[C@@H](c2nc(-c3ccc4ccc(-c5ccccc5)nc4c3)c3c(N)nccn32)C1 [Linsitinib] (partner 1 µM)
In short, it runs like this: as §1

Compound in assay [4]: Cc1ccc(C(=O)Nc2cccc(C(F)(F)F)c2)cc1Nc1cncc(C(N)=O)c1 [ALW-II-49-7] + NC(=O)Nc1cc(-c2cccc(F)c2)sc1C(=O)N[C@H]1CCCNC1 [AZD7762] (partner 0.2 µM)
In short, it runs like this:
as §1

For NCI-H460, the relative viability in assay [1] (first compound 0.08 µM) came to 0.443; in assay [1] (first compound 0.253 µM), 0.337; in assay [1] (first compound 0.8 µM), 0.357; in assay [1] (first compound 2.53 µM) it was 0.431; in assay [1] (first compound 8 µM), 0.4; in assay [2] (first compound 0.05 µM) it was 1.25. The relative viability is 0.951 in assay [2] (first compound 0.1581 µM); 0.99 in assay [2] (first compound 0.5 µM); 0.949 in assay [2] (first compound 1.581 µM); 0.873 in assay [2] (first compound 5 µM); 0.315 in assay [3] (first compound 0.005 µM); 0.229 in assay [3] (first compound 0.01581 µM). The relative viability was determined as 0.157 in assay [3] (first compound 0.05 µM); 0.0338 in assay [3] (first compound 0.1581 µM); 0.0131 in assay [3] (first compound 0.5 µM); 0.567 in assay [4] (first compound 0.08 µM); 0.863 in assay [4] (first compound 0.253 µM); 0.663 in assay [4] (first compound 0.8 µM). Moreover, the relative viability in assay [4] (first compound 2.53 µM) turned out to be 0.665; in assay [4] (first compound 8 µM) it was 0.456.

As for NCI-H596, the relative viability in assay [1] (first compound 0.08 µM) worked out at 0.423; in assay [1] (first compound 0.253 µM), 0.418; in assay [1] (first compound 0.8 µM), 0.416; in assay [1] (first compound 2.53 µM), 0.369; in assay [1] (first compound 8 µM), 0.397; in assay [2] (first compound 0.05 µM) it was 1.05. In addition, the relative viability came out at 0.916 in assay [2] (first compound 0.1581 µM); 0.98 in assay [2] (first compound 0.5 µM); 0.884 in assay [2] (first compound 1.581 µM); 1.05 in assay [2] (first compound 5 µM); 0.854 in assay [3] (first compound 0.005 µM); 0.828 in assay [3] (first compound 0.01581 µM). Moreover, the relative viability came to 0.784 in assay [3] (first compound 0.05 µM); 0.449 in assay [3] (first compound 0.1581 µM); 0.328 in assay [3] (first compound 0.5 µM); 1.15 in assay [4] (first compound 0.08 µM); 1.23 in assay [4] (first compound 0.253 µM); 1.12 in assay [4] (first compound 0.8 µM). The relative viability in assay [4] (first compound 2.53 µM) is 1.14; in assay [4] (first compound 8 µM), 1.24.

Take NCI-H647: the relative viability in assay [1] (first compound 0.08 µM) is 0.489; in assay [1] (first compound 0.253 µM), 0.507; in assay [1] (first compound 2.53 µM), 0.469; in assay [1] (first compound 8 µM) it was 0.499; in assay [2] (first compound 0.05 µM), 1.25; in assay [2] (first compound 0.1581 µM) it was 0.903. For the same cell line, the relative viability in assay [2] (first compound 0.5 µM) worked out at 1.12; in assay [2] (first compound 1.581 µM), 1.03; in assay [2] (first compound 5 µM), 0.548; in assay [3] (first compound 0.005 µM), 1.02; in assay [3] (first compound 0.01581 µM), 0.46; in assay [3] (first compound 0.05 µM), 0.627. Also, the relative viability was determined as 0.319 in assay [3] (first compound 0.1581 µM); 0.192 in assay [3] (first compound 0.5 µM); 0.348 in assay [4] (first compound 0.08 µM); 0.402 in assay [4] (first compound 0.253 µM); 0.419 in assay [4] (first compound 0.8 µM); 0.29 in assay [4] (first compound 8 µM).

Regarding NCI-H650, the relative viability was found to be 0.893 in assay [1] (first compound 0.08 µM); 0.873 in assay [1] (first compound 0.253 µM); 0.763 in assay [1] (first compound 0.8 µM); 0.39 in assay [1] (first compound 2.53 µM); 0.528 in assay [1] (first compound 8 µM); 0.838 in assay [2] (first compound 0.05 µM). For the same cell line, the relative viability in assay [2] (first compound 0.1581 µM) is 0.836; in assay [2] (first compound 0.5 µM), 0.803; in assay [2] (first compound 1.581 µM) it was 0.638; in assay [2] (first compound 5 µM), 0.74; in assay [3] (first compound 0.005 µM), 0.847; in assay [3] (first compound 0.01581 µM) it was 0.941. Further, the relative viability in assay [3] (first compound 0.05 µM) amounted to 0.892; in assay [3] (first compound 0.1581 µM), 0.416; in assay [3] (first compound 0.5 µM) it was 0.396; in assay [4] (first compound 0.08 µM) it was 1.02; in assay [4] (first compound 0.253 µM) it was 0.967; in assay [4] (first compound 0.8 µM), 1.05. Further, the results for the relative viability in assay [4] (first compound 2.53 µM) and in assay [4] (first compound 8 µM) were 0.866 and 0.678, respectively.
